What was measured:
[1] = tested on: L1210-C192; experiment: Cellular growth inhibition, L1210-C192; type: cell-based; conditions: read-out: Cell Line, IC50 L1210-C192
[2] = tested on: L1210 murine leukemia; experiment: Cellular growth inhibition, L1210 (MTT-tetrazolium reduction); type: cell-based; conditions: Mus musculus, L1210, 72 h; 3 days continuous exposure; read-out: Cell Line, IC50 L1210
Method: (§1) Cellular growth in the presence of the compounds according to the present invention was assessed using two cell lines: the L1210 murine leukemia (ATCC CCL 219) and CCRF-CEM, a human lymphoblastic leukemia line of T-cell origin (ATCC CCL 119). Both lines were maintained in RPMI 1640 medium containing 5% heat-inactivated fetal bovine serum without antibiotics.
(§2) Growth was measured over 3 days (L1210) or 5 days (CCRF-CEM) of continuous exposure to varying concentrations of each test compound added 4 hours after initial cell plating by the MITT-tetrazolium reduction assay of Mosmann T. J. (Immunol. meth. 65, 55-63 (1983)), modified according to Alley et al. (Cancer Res. 48, 589-601 (1988)). Water insoluble derivatives were dissolved in DMSO and diluted to a final concentration of 0.5% solvent in cell cultures.

[3] = tested on: CCRF-CEM, a human lymphoblastic leukemia line of T-cell origin; experiment: Cellular growth inhibition, CCRF-CEM (MTT-tetrazolium reduction); type: cell-based; conditions: 120 h, 5 days continuous exposure
Method: as §1, §2

[4] = target: T1, GARFT domain of the human enzyme (Homo sapiens, UniProt P22102); experiment: GARFT inhibition constants, Method I (Cleland; spectrophotometric assay of Young et al.); type: biochemical; conditions: Method I (Examples 2-5 and 10); 22° C, 20 mM Hepes pH 7.5, 20 μM GAR, variable 10-formyl-5,8-dideazafolate
T1 construct: The GARFT domain of the human enzyme was used
T1 sequence (P22102 810-1010 limits assumed): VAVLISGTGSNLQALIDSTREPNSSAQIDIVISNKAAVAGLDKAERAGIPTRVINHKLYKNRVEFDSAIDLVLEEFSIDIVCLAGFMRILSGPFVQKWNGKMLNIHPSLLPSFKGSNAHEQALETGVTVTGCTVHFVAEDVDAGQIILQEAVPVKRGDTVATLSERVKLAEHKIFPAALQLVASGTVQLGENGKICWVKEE
Method: Determination of Inhibition Constants for GARFT
The GARFT domain of the human enzyme was used. […] The assay mix contained 20 mM Hepes pH 7.5, 20 μM GAR, and variable amounts of 10-formyl-5,8-dideazafolate and inhibitor. For each inhibitor five concentrations were used ranging from 0 to approximately 3Ki. The data were plotted as the […] versus the reciprocal of the 10-formyl-5,8-dideaza-folate concentration. The inhibition constants were measured from a replot of the slopes of these lines obtained for each concentration of inhibitor versus the inhibitor concentration.

[5] = target: T2, partially purified AICARFT from cultured CEM cells (Homo sapiens, UniProt P31939); experiment: AICARFT inhibition constants (modified Black et al. assay); type: biochemical; conditions: 37° C, 50 mM Tris-Cl pH 7.4, 50 μM racemic FTHF
T2 construct: partially purified AICARFT from cultured CEM cells; endogenous in cells; host or cells: CEM cells (partially purified enzyme preparation)
Method: Determination of Inhibition Constants for AICARFT
The assay method of Black et al. (Anal Biochem 90, 397-401 (1978)) was modified and used as described below. Buffers were degassed under vacuum prior to the preparation of substrate solutions and degassed buffer was used in the reaction mixtures. Reaction mixtures contained partially purified AICARFT from cultured CEM cells, inhibitor, 100 μM […] (5-aminoimidazole-4-carboxamide-ribonucleotide), 50 μM of a racemic mixture of N10-formyl-tetrahydrofolate (FTHF), 25 mM KCl, 50 mM 2-mercaptoethanol and 50 mM Tris-Cl pH 7.4. The reaction was initiated with the addition of the enzyme solution to a final concentration of 0.1 mg/mL and the reaction followed by monitoring the increase in absorbance at 298 nm at 37° C. (ε298=28 mM cm^−1).
AICARFT inhibition constants (Ki) were determined from the dependence of the steady-state catalytic rate upon inhibitor and substrate concentration. The type of inhibition observed and the determination of Ki was performed as described above for inhibitors of GARFT with the appropriate substrates and the AICARFT assay. Treatment of experimental data was essentially the same.

[6] = target: T3, catalytic domain of the human GARFT (Homo sapiens, UniProt P22102); experiment: GARFT inhibition constants, Method II (modified Young et al. assay); type: biochemical; conditions: Method II (Examples 6, 7, 8 and 9); 20° C, 50 mM Tris-Cl pH 7.5, 20 μM GAR, 10 or 20 μM FDDF
T3 construct: Reaction mixtures contained the catalytic domain of the human GARFT
T3 sequence (P22102 810-1010 limits assumed): T1 sequence (P22102 810-1010 limits assumed)
Method: Reaction mixtures contained the catalytic domain of the human GARFT, inhibitor, 20 μM glycinamide ribonucleotide (GAR), 10 or 20 μM N^10-formyl-5,8-dideazafolate (FDDF), and 50 mM Tris-Cl at pH 7.5.
GARFT constants (Ki) were determined from the dependence of the steady-state catalytic rate upon inhibitor and substrate concentration. […] The michaelis constant Km, was determined independently by the dependence of the catalytic rate upon FDDF concentration. Data for both the Km and Ki determinations were fitted by non-linear methods to the Michaelis equation or the Michaelis equation for competitive inhibition as appropriate.

T2 sequence (P31939 whole entry): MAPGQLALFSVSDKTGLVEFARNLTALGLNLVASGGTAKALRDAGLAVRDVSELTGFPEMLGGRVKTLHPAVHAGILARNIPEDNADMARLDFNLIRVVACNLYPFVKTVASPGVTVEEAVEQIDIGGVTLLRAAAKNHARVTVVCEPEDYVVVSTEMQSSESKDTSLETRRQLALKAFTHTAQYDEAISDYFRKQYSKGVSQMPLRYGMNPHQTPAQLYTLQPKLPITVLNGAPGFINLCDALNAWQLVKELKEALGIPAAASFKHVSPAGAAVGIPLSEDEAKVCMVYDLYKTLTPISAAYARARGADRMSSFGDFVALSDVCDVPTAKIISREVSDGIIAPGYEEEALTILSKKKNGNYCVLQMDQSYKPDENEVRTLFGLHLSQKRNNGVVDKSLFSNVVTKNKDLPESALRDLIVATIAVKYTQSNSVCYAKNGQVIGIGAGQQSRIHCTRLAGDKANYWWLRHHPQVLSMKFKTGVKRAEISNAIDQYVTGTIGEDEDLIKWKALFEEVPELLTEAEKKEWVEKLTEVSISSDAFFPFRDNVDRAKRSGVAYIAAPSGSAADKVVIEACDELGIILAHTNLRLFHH

Row | SMILES | IC50 [1] | IC50 [2] | IC50 [3] | Ki [4] | Ki [5] | melting point | Ki [6]
1 | Cc1cc(CCCSc2c(N)nc(N)[nH]c2=O)sc1C(=O)N[C@@H](CCC(=O)O)C(=O)O [Example 6] | > 25000 nM | 120 nM | 68 nM | – | – | – | –
2 | Nc1nc(N)c(SCCCc2ccc(C(=O)N[C@@H](CCC(=O)O)C(=O)O)s2)c(=O)[nH]1 [Example 3, N-[2-(5-[3-([2,6-diamino-4(3H)-oxopyrimidin-5-yl]thio)propyl]-thienoyl)]-(S)-glutamic Acid] | 10500 nM | 40 nM | 49 nM | 35 nM | – | – | –
3 | Cc1cc(C(=O)N[C@@H](CCC(=O)O)C(=O)O)sc1CCCSc1c(N)nc(N)[nH]c1=O [Example 7] | 28000 nM | 89 nM | 99 nM | – | – | – | –
4 | Nc1nc(N)c(SCC2CCc3cc(C(=O)N[C@@H](CCC(=O)O)C(=O)O)sc3C2)c(=O)[nH]1 (stereo partly drawn) [Example 8, N-(6-[([2,6-diamino-4(3H)oxopyrimidin-5-yl]-thio)methyl]-4,5,6,7-tetrahydrobenzothieno-2-yl)-S-glutamic Acid] | 9000 nM | 10 nM | 8 nM | – | – | – | –
5 | Nc1nc(N)c(SCCc2ccc(C(=O)N[C@@H](CCC(=O)O)C(=O)O)cc2)c(=O)[nH]1 [Example 10] | 12000 nM | 1500 nM | 1200 nM | 30000 nM | 60000 nM | 177 to 181 °C | –
6 | Nc1nc(N)c(SCCCc2ccc(C(=O)N[C@@H](CCC(=O)O)C(=O)O)cc2)c(=O)[nH]1 [Example 2, N-(4-(3-[2,6-diamino-4(3H)-oxopyrimidin-5-yl)thio]propyl)benzoyl-(S)-glutamic Acid] | 5000 nM | 79 nM | 65 nM | – | – | – | –
7 | Nc1nc(N)c(SCCSc2ccc(C(=O)N[C@@H](CCC(=O)O)C(=O)O)cc2)c(=O)[nH]1 [Example 4, N-[(4-[2-([2,6-diamino-4(3H)-oxopyrimidin-5-yl]thio)ethyl]thio)benzoyl]-S-glutamic Acid] | 10000 nM | 110 nM | 130 nM | 110 nM | – | – | –
8 | Nc1nc(N)c(SCCNc2ccc(C(=O)N[C@@H](CCC(=O)O)C(=O)O)cc2)c(=O)[nH]1 [Example 5, N-[4-(N-[2-([2,6-diamino-4(3H)-oxopyrimidin-5-yl]thio)ethyl]amino)benzoyl]-S-glutamic Acid] | 4200 nM | 90 nM | 80 nM | 88 nM | – | – | –
9 | Nc1nc(N)c(SCCc2ccc(C(=O)N[C@@H](CCC(=O)O)C(=O)O)s2)c(=O)[nH]1 [Example 9, N-(5-[2-([2,6-Diamino-4(3H)-oxopyrimidin-5-yl]thio)ethyl]thieno-2-yl)-L-glutamic Acid] | 22000 nM | 250 nM | 620 nM | – | 35000 nM | 228 to 230 °C (dec.) | 2000 nM
